Results published in US9987256B2, “CFTR corrector for the treatment of genetic disorders affecting striated muscle” (UNIVERSITA' DEGLI STUDI DI PADOVA, priority 2012, dated 2018).
Changes are numbered by the printed parent chain.

Tests used:
[1] = molecular target: T1, R98H mutant of alpha-sarcoglycan (Homo sapiens, UniProt Q16586, R98H); test: Confocal immunofluorescence, membrane localization of R98H alpha-sarcoglycan in HEK293 cells; format: cell-based; settings: HEK293, 24 hours
T1 construct: expressed in transfected cells; host or cells: HEK293
T1 sequence (Q16586 24-387 R98H): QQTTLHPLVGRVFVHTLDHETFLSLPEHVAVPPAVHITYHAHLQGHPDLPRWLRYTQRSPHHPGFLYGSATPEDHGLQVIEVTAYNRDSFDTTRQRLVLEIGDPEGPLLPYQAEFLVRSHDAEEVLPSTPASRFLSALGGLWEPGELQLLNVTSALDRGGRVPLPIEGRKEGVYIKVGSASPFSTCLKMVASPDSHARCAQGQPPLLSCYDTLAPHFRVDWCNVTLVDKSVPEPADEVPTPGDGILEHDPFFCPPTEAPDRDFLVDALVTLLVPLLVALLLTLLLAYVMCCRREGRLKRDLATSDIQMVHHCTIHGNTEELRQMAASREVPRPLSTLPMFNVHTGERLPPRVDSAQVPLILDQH
Experimental: (§1) The cellular localization of either the V247M or R98H mutants, upon corrector treatments, has been verified by confocal immunofluorescence.
(§2) In the experiment reported in FIG. 8, HEK 293 cells expressing the R98H mutant have been treated for 24 hours with either Compound H (15 μM), Compound I (10 μM), Compound Q (10 μM), Compound A (2 μM) or the vehicle DMSO at 1% o concentration used as negative control. By comparison, cells expressing the wild type form of α-sarcoglycan have also been used. At the end of treatments, not permeabilized cells were incubated with a monoclonal antibody specific for an extracellular epitope of α-sarcoglycan in order to mark only the membrane resident α-sarcoglycan.
as §2, with “9,” for “8,”, “either two different concentration of” for “either”, “R (2.5 and 5” for “H (15”, “μM),” for “μM), Compound I (10 μM), Compound Q (10 μM), Compound A (2 μM)”, “1‰” for “1% o”

R164H mutant of SERCA1 = molecular target: T2, R164H mutant of SERCA1 (Bos taurus, UniProt Q0VCY0, R164H); test: Western blot rescue of R164H mutant of SERCA1 in HEK293 cells; format: cell-based, bovine; settings: HEK293, 24 hours, relative to wild type
T2 construct: expressed in transfected cells; host or cells: HEK 293
Experimental: In FIG. 3 are reported the results obtained with HEK 293 cells expressing the R164H mutant of SERCA1 treated for 24 hours with either Compound C 5 μM, Compound B 10 μM, Compound E 10 μM, compound F 10 μM, Compound A 2 μM, compound D 10 μM, MG132 (proteasome inhibitor) 10 μM, used as positive control or the vehicle DMSO at 1‰ concentration, used as negative control. At the end of treatments, cells were lysed and total protein resolved by SDS-PAGE. Western blotting analysis has been performed by using SERCA1 specific antibody and β-actin specific antibody, to normalize loaded proteins. In the upper panel of FIG. 3 is reported a representative Western blotting experiment. The expression of SERCA1 in different samples has been determined by densitometric analysis and indicated as percentage of SERCA 1 content present in wild type expressing cells treated with DMSO.
In FIG. 10 is reported the content of SERCA1 protein present in HEK 293 cells transfected with the R164H mutant of SERCA1 and treated for 24 hours with either Compound H 15 μM, Compound I 10 μM, compound Q 10 μM, Compound R 5 μM, Compound S 15 μM, Compound T 15 μM or the vehicle DMSO at 1‰ concentration, used as negative control. Cells expressing the wild type form of SERCA1 have also been used for comparison. At the end of treatments, cells were lysed and total protein resolved by SDS-PAGE. Western blotting analysis has been performed by using SERCA1 specific antibody and β-actin specific antibody, to normalize loaded proteins. The expression of SERCA1 in different samples has been determined by densitometric analysis and indicated as percentage of SERCA 1 content present in wild type expressing cells. The graph of FIG. 10 reports the average values (+/− standard error) of at least three independent experiments.

[2] = molecular target: T3, V247M mutant of alpha-sarcoglycan (Homo sapiens, UniProt Q16586, V247M); test: Confocal immunofluorescence, membrane localization of V247M alpha-sarcoglycan in HEK293 cells; format: cell-based; settings: FIG. 2; HEK293, 24 hours; E 10 μM, D 10 μM, MG132 positive control; not permeabilized cells
T3 construct: expressed in transfected cells; host or cells: HEK 293
T3 sequence (Q16586 24-387 V247M): T1 sequence (Q16586 24-387 R98H) with H75R, V224M
Experimental: as §1
In the experiment reported in FIG. 2, HEK 293 cells expressing the V247M mutant have been treated for 24 hours with either Compound E (10 μM) or Compound D (10 μM), MG132 (positive control) or DMSO at 1‰ concentration (negative control). At the end of treatments, not permeabilized cells were incubated with a monoclonal antibody specific for an extracellular epitope of α-sarcoglycan in order to mark only the membrane resident α-sarcoglycan. By comparison, cells expressing the wild type form of α-sarcoglycan have also been used.

[3] = FIG. 10, H 15 μM, I 10 μM, Q 10 μM, R 5 μM, S 15 μM, T 15 μM
[4] = FIG. 8, H 15 μM, I 10 μM, Q 10 μM, A 2 μM
[5] = FIG. 3, C 5 μM, B 10 μM, E 10 μM, F 10 μM, A 2 μM, D 10 μM

T2 sequence (Q0VCY0 whole entry R164H): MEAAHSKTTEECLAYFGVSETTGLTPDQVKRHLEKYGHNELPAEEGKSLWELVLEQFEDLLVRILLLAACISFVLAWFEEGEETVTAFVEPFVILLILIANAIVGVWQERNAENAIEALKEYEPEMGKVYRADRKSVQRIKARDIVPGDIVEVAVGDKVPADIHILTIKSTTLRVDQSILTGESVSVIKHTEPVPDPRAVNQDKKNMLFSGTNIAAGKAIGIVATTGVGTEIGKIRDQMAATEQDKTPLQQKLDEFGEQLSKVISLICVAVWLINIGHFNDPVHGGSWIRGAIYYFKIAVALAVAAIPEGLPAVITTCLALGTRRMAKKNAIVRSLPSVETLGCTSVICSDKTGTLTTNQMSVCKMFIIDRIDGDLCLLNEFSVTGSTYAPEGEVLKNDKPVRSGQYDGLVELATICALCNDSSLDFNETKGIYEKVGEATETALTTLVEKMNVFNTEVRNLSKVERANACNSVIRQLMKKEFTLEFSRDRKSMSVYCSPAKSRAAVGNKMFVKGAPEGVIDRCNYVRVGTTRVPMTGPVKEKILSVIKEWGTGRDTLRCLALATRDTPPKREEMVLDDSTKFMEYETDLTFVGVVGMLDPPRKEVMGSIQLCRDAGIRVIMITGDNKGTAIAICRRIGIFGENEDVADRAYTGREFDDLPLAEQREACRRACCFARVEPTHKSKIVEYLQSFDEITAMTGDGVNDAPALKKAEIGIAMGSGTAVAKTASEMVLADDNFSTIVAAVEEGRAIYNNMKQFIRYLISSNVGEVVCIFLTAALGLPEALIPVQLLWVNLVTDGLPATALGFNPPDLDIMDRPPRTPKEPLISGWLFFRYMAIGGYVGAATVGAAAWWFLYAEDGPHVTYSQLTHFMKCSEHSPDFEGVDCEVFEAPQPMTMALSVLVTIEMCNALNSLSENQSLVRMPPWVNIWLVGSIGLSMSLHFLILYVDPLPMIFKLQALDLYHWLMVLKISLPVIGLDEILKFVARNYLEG

Compound | SERCA1 protein level (western blot, densitometry), rescue of R164H mutant (R164H mutant of SERCA1; [3]) | plasma membrane localization of R98H alpha-sarcoglycan mutant [1, 4] | SERCA1 protein level (western blot, densitometry), rescue of R164H mutant (R164H mutant of SERCA1; [5]) | also measured
COc1ccccc1Nc1nc(-c2sc(NC(=O)c3ccccc3)nc2C)cs1 [Compound R, N-(2-(2-methoxyphenylamino)-4′-methyl-4,5′-bithiazol-2′-yl)-benzamide] | promote the rescue |  |  | plasma membrane localization of R98H alpha-sarcoglycan mutant ([1]; FIG. 9, Compound R 2.5 and 5 μM): promoted the correct plasma-membrane localization
CC(=O)c1cccc(Nc2nc(-c3sc(NC(=O)c4ccccc4)nc3C)cs2)c1 [Compound Q, N-(2-(3-acetylphenylamino)-4′-methyl-4,5′-bithiazol-2′-yl)-benzamide] | promote the rescue | promote the correct membrane localization |  | 
COc1ccc(Cl)cc1Nc1nc(-c2sc(NC(=O)C(C)(C)C)nc2C)cs1 [Compound A, N-(2-(5-chloro-2-methoxyphenylamino)-4′-methyl-4,5′-bithiazol-2′-yl)pivalamide] |  | promote the correct membrane localization | promote the rescue | 
COc1ccc(Cl)cc1Nc1nc(-c2sc(NC(=O)c3ccccc3)nc2C)cs1 [Compound E, N-[2-(5-Chloro-2-methoxy-phenylamino)-4′-methyl-[4,5′]bithiazolyl-2′-yl]-benzamide] |  |  | promote the rescue | plasma membrane localization of V247M alpha-sarcoglycan mutant [2]: promoted the correct plasma membrane localization
C=Cc1ccc(-c2csc(Nc3ccccc3)n2)cc1 [Compound S, N-phenyl-4-(4-vinylphenyl)thiazol-2-amine] | promote the rescue |  |  | 
Cc1cc(C)c2c(C)cc(Nc3ccccc3)nc2c1 [Compound H, 4,5,7-trimethyl-N-phenylquinolin-2-amine] | promote the rescue | promote the correct membrane localization |  | 
COc1ccc2nc(Nc3nc(=O)c(C)c(C)[nH]3)nc(C)c2c1 [Compound T, 2-(6-methoxy-4-methylquinazolin-2-ylamino)-5,6-dimethylpyrimidin-4(1H)-one] | promote the rescue |  |  | 
O=S(=O)(c1ccc(Cl)cc1)N1CCN(c2ccnc3cc(Cl)ccc23)CC1 [Compound F, 7-chloro-4-(4-(4-chlorophenylsulfonyl)piperazin-1-yl)quinoline] |  |  | promote the rescue | 
Cc1cc(Nc2ccc(Br)cc2)nc2ccccc12 [Compound I, N-(4-bromophenyl)-4-methylquinolin-2-amine] | promote the rescue | promote the correct membrane localization |  | 
